Results on 1 compound are retold here after PMC10411625, “Rationally designed stapled peptides allosterically inhibit PTBP1–RNA-binding” (Chemical Science, 2023).

The structures appear in SMILES notation.

In the series the test system is HEK293T cells. Nature of the series: Cell viability assay (CellTiterGlo 2.0). Particulars: CellTiterGlo 2.0, concentrations of up to 300 μM. It counts as cell-based. The procedure:
protein was buffer exchanged into CD-Buffer using spin columns and measurements were performed in this buffer under similar conditions with protein concentrations of 0.2 mg/ml.
Co-Crystallisation of RRM1Δα3 with P-6
Protein construct RRM1Δα3 was purified using the protocol discussed above and concentrated to 14 mg/ml. P-6 was dissolved in SEC buffer and added in a 1.5 molar excess to the protein solution. After removal of particles by centrifugation (20000 x g, 4 °C, 10 min) sitting-drop experiments were set up by adding 200 nl of protein/ligand to 100 nl reservoir solution (1.89 M (NH4)2SO4, 0.1 M HEPES pH 6.86, 2% v/v PEG400) in MRC 3-drop plates. Sealed plates were incubated at 20 °C using a Formulatrix RockImager and crystals were obtained after several days. Prior to flash-freezing the crystals were cryo conserved by adding 0.5 µl reservoir solution containing 20% v/v glycerol to the drop.
X-ray data collection and processing
X-ray diffraction data was collected at X10SA (PXII) at Swiss Light Source. […]
HEK293T cells were seeded at 30000 cells/well in 75 µl DMEM supplemented with 10% FBS with 1x Pen-Strep (Gibco) in 96-well plates on the day prior the experiment. […] Cell viability was read out using CellTiterGlo 2.0 (Promega) according to the manufacturers protocol. Viability was calculated in % of signal normalized to the DMSO controls.
(In ATP-based viability assays light output follows the ATP content of the culture.)

For the compound `CC(=O)N[C@@H](CC(N)=O)C(=O)N[C@@H](CCC(N)=O)C(=O)N[C@@]1(C)CCCC=CCCCC2(CCCC=CCCC[C@](C)(C(=O)N[C@H](C(=O)N[C@@H](CC(N)=O)C(N)=O)C(C)C)NC(=O)[C@H](CCC(N)=O)NC(=O)[C@H](CC(C)C)NC(=O)[C@H](C)NC2=O)NC(=O)[C@H](CCC(N)=O)NC(=O)[C@H](C)NC(=O)[C@H](CCCNC(=N)N)NC1=O` (stereo partly shown) [Peptide P-6], the “cell viability (in words)” value is on record as “not affected”.
